Data from patent US7048951B1, “Systems and methods for topical treatment with nitric oxide” (Nioxx, LLC, priority 1998, dated 2006).
Read-outs that look alike come from different tables or passages of the source.

How the values were obtained:
[1] = cited from earlier work
pKa of acids = format: physicochemical
[2] = preservative concentration 0.01% in carbomer gel
[3] = preservative concentration 0.1% in carbomer gel
[4] = preservative concentration 0.18% in carbomer gel (propylparaben 0.05% listed in next row)

For `O=C([O-])c1ccccc1.[Na+]` [Sodium Benzoate], the Appearance [1, 2] is listed as “Clear”, the Compatible [1, 2] is listed as “Yes” and the Appearance [1, 3] is listed as “Cloudy”. The Compatible [1, 3] was “No”.

For Benzalkonium Chloride, the Appearance [1, 2] is given as “Clear”, the Compatible [1, 2] is given as “Yes” and the Appearance [1, 3] is given as “Cloudy”. For the same compound, the Compatible [1, 3] was “No”.

In the case of `COC(=O)c1ccc(O)cc1` [Methylparaben], the Appearance [1, 4] is listed as “Clear” and the Compatible [1, 4] is listed as “Yes”.

With `O=C(O)/C=C\C(=O)O` [Maleic acid] the “acid strength relative to nitrous acid” value (pKa of acids) was “about 30 times”.

For `C[CH2][Hg][S]c1ccccc1C(=O)[O-].[Na+]` [Thiomersal], the Appearance [1, 2] is given as “Clear”, the Compatible [1, 2] is given as “Yes” and the Appearance [1, 3] is given as “Clear”. The Compatible [1, 3] was “Yes”.
